According to patent US9770430B2, “Desferrioxamine-metal complexes for the treatment of immune-related disorders” (priority 2009, dated 2017):

Experiments:
[1] = pH limit of the complex solution during preparation (loss of biological activities); assay type: physicochemical; details: pH above 6.1; solution reacts with air-containing CO2
lens proteins = assay: Lens proteins of high energy diet fed sand rats (total protein, Trx, TrxR, actin, Msr activity, ferritin); assay type: in vivo, sand rat (Psammomis obesus)
Description: (§1) Ferritin concentration was quantified using an indirect ‘sandwich’ ELISA assay in accordance with a procedure developed previously in our laboratory. Briefly, ELISA 96-well micro plates were pre-coated with goat anti-human L-ferritin antibody. Rabbit anti-human H-ferritin was used as the secondary antibody. Plates were treated with goat anti-rabbit IgG conjugated with β-galactosidase. Chlorophenol Red-β-D-Galactopyranoside was then added and the plates analyzed using a microplate reader with a test (570 nm) and reference (630 nm) filters.
Quantification of the activity of methionine-sulfoxide reductase (Msr) was carried out by incubation the tissue lysates with dabsyl-methionine sulfoxide for 30 min at 37° C., followed by analysis of the reduced product (dabsyl methionine) by HPLC-spectrophotometric detection at 436 nm Assay: total volume 100 μl, including 200 μM Dabsyl-met (O) (as a substrate). The reaction mixture contained also 20 mM DTT, buffer, ˜100 μg protein. The incubation (reaction) was stopped by adding 100 μl of acetonitrile, spinning down, and discarding the protein fraction. The chromatography was run on a 150 mm 3 μm C-18 column, using a gradient (A to B). A=19 g of sodium acetate, pH 6.0 plus 0.5 ml of triethylamine, in one liter of solution; B=acetonitrile (pure). The substrate, dabsyl-Met (0) was prepared as described [Moskovitz, J. et al. (2001) Proc Natl Acad Sci USA, 98 (23): p. 12920-5; Moskowitz et al. (1997) Proc Natl Acad Sci USA, 94 (18): p. 9585-93].
Nineteen sand rats were divided into three groups. Group I (n=4) received a standard diet and was used as a control. Groups II (n=7) and III (n=8) received a high energy diet, leading to diabetes development. Group III was treated with 2.5 mg Zn-DFO i.p. per kg body weight three times a week, while Group II was injected with saline according to the same pattern. After the blood glucose and body weight monitoring for 63 days, glucose tolerance test was performed and blood level of 2,3-DHBA and catechols was also measured. As previously done, cataract formation was tested as well. The retina and lens were collected for biochemical analysis of the concentration of ferritin, thioredoxin-1 (Trx) and thioredoxin reductase-1 (TrxR), total lens protein and methionine sulfoxide reductase (Msr) activity. The concentration of actin, Trx and TrxR were measured by Western Blotting, and the activity of Msr was analyzed by HPLC as described.

ovalbumin-induced asthma [2] = assay: Ovalbumin-induced asthma, prophylactic treatment model (lung ferritin); assay type: in vivo, BALB/c mice; details: asthmatic mice, 1 and 0.3 mg/kg i.p., then 0.3 mg/kg i.n.
Description: as §1
• Twelve-week-old Balb/c mice were administered 10 μg (100 μl) ovalbumin (OVA) dissolved with 3 mg Al(OH)3 in 0.9% saline intraperitoneally (i.p.) on days 0, 7 and 14, and 10 μg (50 μl) OVA intranasally (i.n.) on days 20, 23, 25, 27, 29, 31, 34, 36, 37, 41, 43 and 45. […]
(§2) To estimate the anti-asthmatic effect of the complexes the following parameters were measured: the concentration of ferritin in the lungs, the presence of inflammatory cells infiltration into the lungs, and the amounts of macrophages, eosinophils, lymphocytes and neutrophils in bronchoalveolar lavages (BALs).

[3] = complex of desferrioxamine with the named metal ion; cited from earlier work
ovalbumin-induced asthma [4] = assay: Ovalbumin-induced asthma, treatment of chronic asthma model (BAL cells, lung histology); assay type: in vivo, BALB/c mice; details: Mean ± SE
Description: • Twelve-week-old Balb/c mice were administered 10 μg (100 μl) ovalbumin (OVA) dissolved with 3 mg Al(OH)3 in 0.9% saline intraperitoneally (i.p.) on days 0, 7 and 14, and 10 μg (50 μl) OVA intranasally (i.n.) on days 20, 23, 25, 27, 29, 31, 34, 36, 37, 41, 43 and 45. For intranasal administration, mice were anesthetized with inhaled N-flurane and instilled with OVA i.n. with a micropipette. • Three-week-old BALB/c mice were sensitized (×3) with intra-peritoneal (i/p) injection (100 μl OVA solution, containing 0.3 mg OVA and 6.7 mg Al(OH)3, in 1 ml PBS) on days 0, 7 and 14. On days 14, 15, 17, 21 and 23 the mice were further sensitized with intranasal sprinklings (50 μl, each) of OVA in PBS solution containing 2 mg/ml OVA, as following: mice were anesthetized with inhaled N-flurane and instilled with OVA intra-nasally using a micropipette. Twenty-four hours after the last administration of OVA, the mice were sacrificed. Methacholine Challenge and Collection of Histologic Sections and Biochemical Samples
Either Zn-DFO, Ga-DFO, Zn-DFO and Ga-DFO 1:1 combination (herein metal complexes) or saline were administered as follows: on days −5, −1, 7 and 14, 1 mg/kg body weight metal complexes or saline were administered intraperitoneally (i.p.). On days 0, 6, 8, 13 and 15, 0.3 mg/kg body weight metal complexes or saline were administered i.p. On days 20, 23, 25, 27, 29, 31, 34, 36, 37, 41, 43 and 45, 0.3 mg/kg body weight metal complexes or saline were administered intranasally (i.n.). Twenty-four hours after the last sensitization, mice were anesthetized with urethane and the lungs were lavaged 4 times with 0.5 ml sterile PBS. Animals in the “control” group (non-asthmatic—saline treated, but not sensitized) (n=6) received saline injections and instillations, using the same regime as the asthmatic and treated animals. Animals of the “asthmatic” group (sensitized and saline-treated, rather than complex-treated) (n=6) received saline instead of the respective complex, under the same regime.
For the treatment of chronic asthma model, a similar experimental protocol was followed, with the following modifications: 1 mg/kg body weight metal complexes or saline were administered i.p. on day 0 (instead of days −5 and −1) and a further 0.3 mg/kg complexes or saline were administered on day 1. In this model, the effects of the complexes were investigated further by histological examination of lung sections stained with either haematoxylin-eosine or PAS/AB (periodic acid-Schiff/alcan blue).
as §2

[5] = Western Blotting, diabetes-induced decrease

CC(=O)N(O)CCCCCNC(=O)CCC(=O)N([O-])CCCCCNC(=O)CCC(=O)N([O-])CCCCCN.[Zn+2] [Zn-DFO, Zinc-desferrioxamine]
effect of higher pH on the Zn-DFO solution [1]: marked loss of the biological activities
lens Msr activity (lens proteins; HPLC, diabetes-induced decrease): partial, but statistically significant restoration
lens concentration of Trx (lens proteins; [5]): partial, but statistically significant restoration
lens concentration of TrxR (lens proteins; [5]): partial, but statistically significant restoration
lens concentration of actin (lens proteins; [5]): partial, but statistically significant restoration
total lens protein concentration (Bradford assay) (lens proteins; diabetes-induced decrease): partly prevented this decrease
decrease in lens ferritin level (lens proteins; versus diabetic animals): 3.8 fold
lung ferritin level (ovalbumin-induced asthma [2]): 0.6 ± 0.2 µg/mg
relative stability constants for the complexes of desferrioxamine [3]: 10^11
Eosinophils in BAL fluid (ovalbumin-induced asthma [4]): 0.3 ± 0.05^# 10^4 cells/ml
Lymphocytes in BAL fluid (ovalbumin-induced asthma [4]): 0.2 ± 0.05^# 10^4 cells/ml
Macrophages in BAL fluid (ovalbumin-induced asthma [4]): 3.0 ± 0.2^# 10^4 cells/ml
Neutrophils in BAL fluid (ovalbumin-induced asthma [4]): 0.2 ± 0.05^# 10^4 cells/ml
Total WBC in BAL fluid (ovalbumin-induced asthma [4]): 4.0 ± 0.3^# 10^4 cells/ml
